The results in this text go back to patent US20090004166A1, “Carrier For Enternal Administration” (priority 2004, published 2009).

This assay deals with Sprague-Dawley rats. Particulars: oral gavage, 5 mg/kg, heat source ~45° C.

Description: The effect was measured by comparison of times taken for a rat to withdraw its paw in response to heat when medicated and unmedicated with morphine.
Animals: Nine conscious Sprague-Dawley rats weighing between 350-450 grams each Treatment groups: • 1. […] Morphine with TPm: morphine HCl (14%) in a carrier containing water (59%) and a tocopheryl phosphate mixture (27%) (TPm). The TPm contained mono-tocopheryl phosphate and di-tocopheryl phosphate.
Formulations 2 and 3 were diluted with water and the final morphine concentration was made up to 5 mg/ml. […] This liquid formulation was then delivered to the animals by oral gavage (tube into stomach).
The experiment used nine rats that were divided into three groups. […]
Analgesic testing was performed at 1, 2, 4 and 6 hours and at each time point withdrawal latency was measured three times on each rat (with at least five minutes rest if using the same paw).
A plantar analgesiometer designed for rapid and efficient screening of analgesia levels in small laboratory animals was used. The device applied a heat source (˜45° C. from an infrared light) to the animal's hindpaw and the time taken to withdraw the paw from the heat source was measured (paw withdrawal latency). […] The animal was placed on a hot plate, confined by a clear acrylic cage which surrounds the plate and paw withdrawal response was monitored. […]

With `CN1CC[C@]23c4c5ccc(O)c4O[C@H]2[C@@H](O)C=C[C@H]3[C@H]1C5.O=S(=O)(O)O` [morphine sulphate], the “paw withdrawal latency (analgesia)” value is listed as “increase in latency”.
